Results on 13 compounds are retold here after ChEMBL document CHEMBL1201862, “PubChem BioAssay data set” (2004).

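Test compounds were applied to cells in 96-well plates for 48 hours at 5 doses. GI50 is the concentration that inhibits growth by half.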 Calls of active or inactive are those of the source. Rule as the data show it: active = GI50 up to about 1.1 µM and inactive = higher.

Test systems include SK-MEL-2; SNB-19; DMS-114; IGROV-1; M19-MEL; A549; MOLT-4; NCI-H522; OVCAR-4; SNB-78; HCT-15; SK-MEL-5; EKVX; NCI-H460; HCT-116; HOP-92; SR.
Experiment in all cases: inhibition of tumour cell growth, NCI panel, 48 h

Take `COc1ccc2c(c1)[n+]([O-])c(-c1ccc(OC)c(OC)c1)c(N)[n+]2[O-]`: the GI50 in the test on SK-MEL-2 was 92.3 µM (inactive); in the test with SNB-19, 83.2 µM (inactive); in the test on DMS-114, 34.1 µM (inactive); in the test with IGROV-1, > 100 µM (inactive); in the test with M19-MEL, 54.6 µM (inactive); in the test with A549, > 100 µM (inactive). Moreover, the GI50 in the test with MOLT-4 was 78.5 µM (inactive); with NCI-H522, 15.9 µM (inactive); with OVCAR-4, > 100 µM (inactive); with SNB-78, 95.3 µM (inactive); in the test with HCT-15 it was 37.2 µM; with SK-MEL-5 it was 32.7 µM (inactive). The GI50 was > 100 µM (inactive) in the test on EKVX and 49.4 µM (inactive) in the test with NCI-H460.

Consider `Cc1cc2c(c(C(=O)O)c1C)-c1cccc(F)c1C2=O`, for which the GI50 in the test with SK-MEL-2 was > 100 µM (inactive); in the test with SNB-19, 67.8 µM (inactive); with DMS-114, > 100 µM (inactive); in the test with IGROV-1 it was > 100 µM (inactive); with M19-MEL, > 100 µM (inactive); with A549, > 100 µM (inactive). Further, the GI50 in the test on MOLT-4 was > 100 µM (inactive); in the test on NCI-H522, > 100 µM (inactive); with OVCAR-4, > 100 µM (inactive); in the test with SNB-78, > 100 µM (inactive); in the test with HCT-15, above 100 µM; with SK-MEL-5, > 100 µM (inactive). Further, the GI50 in the test on EKVX and in the test on NCI-H460 was > 100 µM (inactive) throughout.

Consider `Fc1ccc(C2SCc3nc4ccccc4n32)cc1F` (stereo not given), for which the GI50 is 23.8 µM (inactive) in the test on SK-MEL-2; 29.6 µM (inactive) in the test with SNB-19; 26.8 µM (inactive) in the test with HCT-116; 18.1 µM (inactive) in the test with DMS-114; 33.5 µM (inactive) in the test on IGROV-1; 28.6 µM (inactive) with M19-MEL. The GI50 in the test with A549 was 33.6 µM (inactive); with MOLT-4, 21.4 µM (inactive); with NCI-H522, 18.3 µM (inactive); in the test on OVCAR-4, 18.2 µM (inactive); in the test on SNB-78 it was 32.2 µM (inactive); in the test on HCT-15 it was 35.7 µM. Further, the results for the GI50 with SK-MEL-5, with EKVX and with NCI-H460 were 16.8 µM (inactive), 39.2 µM (inactive) and 37.4 µM (inactive), respectively.

On to `c1ccc(NCn2cnc3ccccc32)cc1`, for which the GI50 in the test on SK-MEL-2 is > 100 µM (inactive); with SNB-19 it was > 100 µM (inactive); in the test on HCT-116 it was 74.1 µM (inactive); with DMS-114, > 100 µM (inactive); with IGROV-1 it was > 100 µM (inactive); with M19-MEL, > 100 µM (inactive). Besides, the GI50 in the test with A549 is > 100 µM (inactive); in the test with MOLT-4, > 100 µM (inactive); in the test on NCI-H522, > 100 µM (inactive); with OVCAR-4 it was > 100 µM (inactive); with SNB-78, > 100 µM (inactive); in the test with HCT-15, 15.6 µM. The GI50 with SK-MEL-5, in the test with EKVX and with NCI-H460 was > 100 µM (inactive) throughout.

Regarding `CC1CC(=O)C(CC(=O)O)C1C(C(=O)C(=O)Nc1c(C#N)cccc1[N+](=O)[O-])[N+](=O)[O-]` (stereo not given), the GI50 with SK-MEL-2, in the test with SNB-19, in the test with HCT-116, in the test on DMS-114, with IGROV-1 and with M19-MEL was > 100 µM (inactive) in each case. For the same compound, the GI50 in the test on A549 is > 100 µM (inactive); in the test on HOP-92, 82.2 µM (inactive); in the test with MOLT-4, > 100 µM (inactive); with OVCAR-4, > 100 µM (inactive); in the test with SNB-78, 80.4 µM (inactive); in the test on HCT-15, above 100 µM. In addition, the GI50 with SK-MEL-5, in the test with SR, in the test on EKVX and in the test on NCI-H460 was > 100 µM (inactive) throughout.

As to `O=C(CC1(O)C(=O)Nc2ccc([N+](=O)[O-])cc21)c1ccncc1` (stereo not given), the GI50 was 85.1 µM (inactive) in the test with SK-MEL-2; 54.3 µM (inactive) in the test on SNB-19; 30.8 µM (inactive) in the test with HCT-116; 30.5 µM (inactive) in the test on DMS-114; 20.4 µM (inactive) in the test with M19-MEL; > 100 µM (inactive) in the test with A549. Besides, the GI50 is 24.2 µM (inactive) with MOLT-4; 29.8 µM (inactive) with NCI-H522; 22.1 µM (inactive) with OVCAR-4; 47.2 µM (inactive) with SNB-78; 83.8 µM in the test with HCT-15; > 100 µM (inactive) with EKVX. Further, the GI50 in the test with NCI-H460 was 48.6 µM (inactive).

Regarding `CC(c1ccccc1)C(O)S(=O)(=O)O` (stereo not given), the GI50 is > 100 µM (inactive) in the test with SK-MEL-2; > 100 µM (inactive) with SNB-19; > 100 µM (inactive) in the test on HCT-116; 98.9 µM (inactive) in the test with DMS-114; > 100 µM (inactive) in the test with IGROV-1; > 100 µM (inactive) in the test with M19-MEL. Also, the GI50 in the test on A549, with HOP-92, in the test with MOLT-4, in the test on NCI-H522, in the test with OVCAR-4 and with SNB-78 was > 100 µM (inactive) each time. Moreover, the GI50 in the test on HCT-15 is above 100 µM; with EKVX it was > 100 µM (inactive); in the test with NCI-H460, 88.3 µM (inactive).

As for `COC(=O)CCC(NC(=S)N/N=C(\C)c1ccco1)C(=O)OC` (stereo not given), the GI50 in the test with SK-MEL-2, in the test with SNB-19, with HCT-116, in the test with DMS-114, in the test on IGROV-1 and in the test with M19-MEL was > 100 µM (inactive) throughout. The GI50 is > 100 µM (inactive) in the test with A549; > 100 µM (inactive) in the test on NCI-H522; > 100 µM (inactive) in the test with OVCAR-4; > 100 µM (inactive) with SNB-78; above 100 µM with HCT-15; > 100 µM (inactive) in the test on SK-MEL-5. Further, the GI50 in the test with EKVX and with NCI-H460 was > 100 µM (inactive) throughout.

On to `COC(=O)C1=C(C(=O)OC)C23C=CC=CC24C(C(=O)OC)=C(C(=O)OC)C4C1C3` (stereo not given), for which the GI50 was > 100 µM (inactive) with SK-MEL-2; > 100 µM (inactive) with SNB-19; 77.1 µM (inactive) with HCT-116; 88.7 µM (inactive) with DMS-114; > 100 µM (inactive) in the test with IGROV-1; > 100 µM (inactive) in the test with M19-MEL. For the same compound, the GI50 in the test on A549 is > 100 µM (inactive); with HOP-92 it was > 100 µM (inactive); in the test on MOLT-4, > 100 µM (inactive); in the test with NCI-H522, 32.7 µM (inactive); in the test on OVCAR-4 it was > 100 µM (inactive); in the test with SNB-78 it was 67.1 µM (inactive). Further, the GI50 with HCT-15 was 59.8 µM; with SK-MEL-5 it was > 100 µM (inactive); in the test on EKVX, > 100 µM (inactive); with NCI-H460, > 100 µM (inactive).

Take `C[Si](C)(C)/C(Br)=C\CCN1C(=O)CCC1=O`: the GI50 in the test on SK-MEL-2 is > 100 µM (inactive); in the test on SNB-19 it was > 100 µM (inactive); in the test with HCT-116, > 100 µM (inactive); in the test with DMS-114, > 35.2 µM (inactive); in the test on IGROV-1, > 100 µM (inactive); in the test on M19-MEL, > 100 µM (inactive). Further, the GI50 was > 100 µM (inactive) in the test on A549; > 100 µM (inactive) in the test with HOP-92; > 100 µM (inactive) in the test with MOLT-4; > 100 µM (inactive) in the test with OVCAR-4; > 100 µM (inactive) in the test on SNB-78; above 100 µM with HCT-15. The GI50 in the test with SK-MEL-5, in the test with SR, with EKVX and in the test on NCI-H460 was > 100 µM (inactive) in each case.

Consider `C1CC[N+]23CCCC[N+]2(C1)CCCC3` (stereo not given), for which the GI50 with SK-MEL-2 is > 100 µM (inactive); with SNB-19, > 100 µM (inactive); in the test with HCT-116, > 100 µM (inactive); with DMS-114 it was 56.2 µM (inactive); with IGROV-1, > 100 µM (inactive); in the test with M19-MEL it was > 100 µM (inactive). Also, the GI50 is > 100 µM (inactive) with A549; > 100 µM (inactive) in the test with MOLT-4; > 100 µM (inactive) in the test with NCI-H522; > 100 µM (inactive) in the test with OVCAR-4; > 100 µM (inactive) in the test with SNB-78; above 100 µM in the test with HCT-15. Also, the GI50 with SK-MEL-5, in the test with SR, in the test with EKVX and in the test on NCI-H460 was > 100 µM (inactive) each time.

As for `O=C(CSSCC(=O)OCCS(=O)(=O)Nc1ccc(Br)cc1)OCCS(=O)(=O)Nc1ccc(Br)cc1`, the GI50 was 12.5 µM (inactive) in the test with SK-MEL-2; 32.8 µM (inactive) in the test on SNB-19; 4.26 µM (inactive) in the test with DMS-114; 17.3 µM (inactive) with IGROV-1; 15.1 µM (inactive) in the test with M19-MEL; 19 µM (inactive) in the test with A549. In addition, the GI50 was 13.1 µM (inactive) in the test with HOP-92; 3.11 µM (inactive) with MOLT-4; 6.53 µM (inactive) in the test on NCI-H522; 8.75 µM (inactive) with OVCAR-4; 17.1 µM (inactive) with SNB-78; 14.5 µM in the test with HCT-15. The GI50 in the test on SK-MEL-5 was 11.8 µM (inactive); with EKVX, 26.5 µM (inactive); in the test with NCI-H460 it was 14.5 µM (inactive).

With `N#Cc1cccc(NC(=O)c2ccc(C(=O)O)c(C(=O)c3ccc(C(=O)O)c(C(=O)Nc4cccc(C#N)c4)c3)c2)c1`, the GI50 with SK-MEL-2, with SNB-19, with HCT-116, in the test on DMS-114, in the test with IGROV-1 and with M19-MEL was > 100 µM (inactive) in each case. The GI50 in the test on A549, in the test on HOP-92, in the test on MOLT-4, in the test on NCI-H522, in the test on OVCAR-4 and in the test on SNB-78 was > 100 µM (inactive) in each case. Also, the GI50 is above 100 µM in the test with HCT-15, > 100 µM (inactive) in the test with SK-MEL-5, > 100 µM (inactive) with EKVX and > 100 µM (inactive) with NCI-H460.
